Reference: patent publication US20230203081A1, “LINCOSAMIDE ANTIBIOTICS AND USES THEREOF” (President and Fellows of Harvard College, priority 2020, published 2023)
Values after ≈ are worked out from the molar mass of the structure shown. Read-outs that look alike come from different tables or passages of the source.

How the values were obtained:
Type in all cases: cell-based
[1] = system: E. coli ΔTolC; test: microbe, parasite or virus in culture
Description: (§1) Minimum inhibitory concentrations (MICs) were determined by broth microdilution method or agar dilution method following the Clinical and Laboratory Standards Institute guidelines. Standard bacterial strains were obtained from American Type Culture Collection (ATCC). Other bacterial strains were obtained from hospitals and commercial sources, so noted in Table 11. […] Specialized procedures were employed for streptococcal and anaerobic strains. All other bacterial strains were sub-cultured on blood agar plates (tryptic soy agar with 5% sheep blood, Hardy Diagnostics) and incubated overnight at 35° C. […] Suspensions were further diluted to obtain a final inoculum of 5×10^5 CFU/mL for broth microdilution experiments.

[2] = system: E. faecium Clinical VRE; test: MIC (broth microdilution or agar dilution, CLSI); conditions: E. faecium Clinical VRE
Description: (§2) Minimum inhibitory concentrations (MICs) were determined by broth microdilution method or agar dilution method following the Clinical and Laboratory Standards Institute guidelines. Standard bacterial strains were obtained from American Type Culture Collection (ATCC). Other bacterial strains were obtained from hospitals and commercial sources, so noted in Table 11. Before the start of the MIC experiment, standard and test compound stock solutions were prepared in dimethyl sulfoxide (DMSO, Aldrich D2650) at a stock concentration of 5,120 μg/mL. The compound concentration range typically employed for each experiment was 128-0.06 μg/mL (2.5% final DMSO concentration). Clindamycin was used as a comparator in all experiments and each experiment was performed in triplicate. Specialized procedures were employed for streptococcal and anaerobic strains. All other bacterial strains were sub-cultured on blood agar plates (tryptic soy agar with 5% sheep blood, Hardy Diagnostics) and incubated overnight at 35° C. Organisms were suspended in cation-adjusted Mueller-Hinton broth (CaMHB, BD 212322) and optical density was adjusted to 0.5 McFarland standard. Suspensions were further diluted to obtain a final inoculum of 5×10^5 CFU/mL for broth microdilution experiments.

[3] = system: P. aeruginosa ATCC 27853; test: MIC (broth microdilution or agar dilution, CLSI); conditions: P. aeruginosa ATCC 27853
Description: as §2

[4] = system: S. aureus cErmA; test: MIC (broth microdilution or agar dilution, CLSI); conditions: S. aureus cErmA
Description: as §2

[5] = system: A. baumannii ATCC 19606; test: MIC (broth microdilution or agar dilution, CLSI); conditions: A. baumannii ATCC 19606
Description: as §1

[6] = system: E. coli ATCC 25922; test: MIC (broth microdilution or agar dilution, CLSI)
Description: as §1

[7] = system: E. coli LptD; test: MIC (broth microdilution or agar dilution, CLSI)
Description: as §1

[8] = system: E. faecalis ATCC 29212; test: MIC (broth microdilution or agar dilution, CLSI)
Description: as §1

[9] = system: K. oxytoca Clinical; test: MIC (broth microdilution or agar dilution, CLSI)
Description: as §1

[10] = system: S. aureus ATCC 29213; test: MIC (broth microdilution or agar dilution, CLSI)
Description: as §1

[11] = system: S. pneumoniae ATCC 49619; test: MIC (broth microdilution or agar dilution, CLSI)
Description: as §1

[12] = system: S. pyogenes ATCC 19615; test: MIC (broth microdilution or agar dilution, CLSI)
Description: as §1

[13] = system: broad panel of different clinical isolates; test: microbe, parasite or virus in culture; conditions: Enterococcus faecium, VRE, E. faecium HAV#326; Clinical
Description: as §1

[14] = system: S. aureus ATCC BAA-1707 (MRSA); test: MIC (broth microdilution or agar dilution, CLSI); conditions: Staphylococcus aureus; S. aureus HAV#016, ATCC BAA-1707; MRSA; read-out: MIC
Description: as §1

[15] = system: S. aureus BAA 977 iErmA; test: microbe, parasite or virus in culture; conditions: Staphylococcus aureus, BAA-977 / MRSA
Description: as §1

[16] = Escherichia coli, E. coli HAV#038, ΔTolC
[17] = Escherichia coli, ATCC25922, E. coli HAV#006, ATCC 25922, read-out: MIC
[18] = Escherichia coli, E. coli HAV#040, LptD, read-out: MIC
[19] = Enterococcus faecalis, ATCC29212, E. faecalis HAV#005, ATCC 29212, read-out: MIC
[20] = Staphylococcus aureus, ATCC29213, S. aureus HAV#001, ATCC 29213, MP-549, read-out: MIC
[21] = Escherichia coli, E. coli ΔTolC
[22] = Enterococcus faecium, read-out: MIC
[23] = Pseudomonas aeruginosa, ATCC27853, read-out: MIC
[24] = Staphylococcus aureus, read-out: MIC
[25] = Acinetobacter baumannii, ATCC19606, read-out: MIC
[26] = Escherichia coli, ATCC25922, E. coli ATCC 25922, read-out: MIC
[27] = Escherichia coli, E. coli LptD, read-out: MIC
[28] = Enterococcus faecalis, ATCC29212, E. faecalis ATCC 29212, read-out: MIC
[29] = Klebsiella oxytoca, K. oxytoca Clinical, read-out: MIC
[30] = Staphylococcus aureus, ATCC29213, S. aureus ATCC 29213, read-out: MIC
[31] = Streptococcus pneumoniae, ATCC49619, S. pneumoniae ATCC 49619, read-out: MIC
[32] = Streptococcus pyogenes, ATCC19615, S. pyogenes ATCC 19615, read-out: MIC

Compound	MIC [1, 16]	MIC [13]	MIC [6, 17]	MIC [7, 18]	MIC [8, 19]	MIC [10, 20]	MIC [14]	MIC [1, 21]	MIC [2, 22]	MIC [3, 23]	MIC [4, 24]	MIC [5, 25]	MIC [6, 26]	MIC [7, 27]	MIC [8, 28]	MIC [9, 29]	MIC [10, 30]	MIC [11, 31]	MIC [12, 32]	other results
CSC1O[C@H]([C@H](NC(=O)[C@H]2NC[C@@H]3C[C@H](CC(F)F)CCO[C@H]32)[C@H](C)Cl)C(O)[C@@H](O)[C@H]1O (stereo partly drawn) [FSA-10-09-093]	–	–	–	–	–	–	–	–	–	–	–	–	–	–	–	–	–	–	–	MIC ([1]; E. coli ΔTolC): 1 mg/L (≈ 1.99 µM); MIC [2]: 8 mg/L (≈ 15.9 µM); MIC [3]: >128 mg/L; MIC [4]: 32 mg/L (≈ 63.6 µM); MIC [5]: 128 mg/L (≈ 254 µM); MIC ([6]; E. coli ATCC 25922): 16 mg/L (≈ 31.8 µM); MIC ([7]; E. coli LptD): 4 mg/L (≈ 7.95 µM); MIC ([8]; E. faecalis ATCC 29212): 0.25 mg/L (≈ 0.497 µM); MIC ([9]; K. oxytoca Clinical): 16 mg/L (≈ 31.8 µM); MIC ([10]; S. aureus ATCC 29213): 0.25 mg/L (≈ 0.497 µM); MIC ([11]; S. pneumoniae ATCC 49619): 0.5 mg/L (≈ 0.994 µM); MIC ([12]; S. pyogenes ATCC 19615): 0.5 mg/L (≈ 0.994 µM)
CCC[C@@H]1C[C@@H](C(=O)N[C@@H]([C@H]2O[C@H](SC)[C@H](O)[C@@H](O)[C@H]2O)[C@@H](C)O)N(C)C1 [Lincomycin]	128 mg/L (≈ 315 µM)	16 mg/L (≈ 39.4 µM)	> 256 mg/L	64 mg/L (≈ 157 µM)	32 mg/L (≈ 78.7 µM)	0.5 mg/L (≈ 1.23 µM)	0.25 mg/L (≈ 0.615 µM)	–	–	–	–	–	–	–	–	–	–	–	–	MIC ([9]; Klebsiella oxytoca, K. oxytoca HAV#450, Clinical, read-out: MIC): > 256 mg/L; MIC ([11]; Streptococcus pneumoniae, ATCC49619, S. pneumoniae HAV#003, ATCC 49619, read-out: MIC): 1 mg/L (≈ 2.46 µM); MIC ([12]; Streptococcus pyogenes, ATCC19615, S. pyogenes HAV#004, ATCC 19615, read-out: MIC): 0.5 mg/L (≈ 1.23 µM)
CC[C@@H]1CCO[C@@H]2[C@H](CN[C@@H]2C(=O)N[C@H]([C@H](C)Cl)[C@H]2OC(SC)[C@H](O)[C@H](O)C2O)C1 (stereo partly drawn) [FSA-10-10-012]	–	–	–	–	–	–	–	0.5 mg/L (≈ 1.07 µM)	8 mg/L (≈ 17.1 µM)	> 128 mg/L	8 mg/L (≈ 17.1 µM)	32 mg/L (≈ 68.5 µM)	16 mg/L (≈ 34.3 µM)	2 mg/L (≈ 4.28 µM)	0.25 mg/L (≈ 0.535 µM)	16 mg/L (≈ 34.3 µM)	0.125 mg/L (≈ 0.268 µM)	0.125 mg/L (≈ 0.268 µM)	0.125 mg/L (≈ 0.268 µM)	–
C=C[C@@H]1CCO[C@@H]2[C@H](CN[C@@H]2C(=O)N[C@H]([C@H](C)Cl)[C@H]2OC(SC)[C@H](O)[C@H](O)C2O)C1 (stereo partly drawn) [FSA-10-10-013]	–	–	–	–	–	–	–	2 mg/L (≈ 4.3 µM)	32 mg/L (≈ 68.8 µM)	> 128 mg/L	64 mg/L (≈ 138 µM)	> 128 mg/L	64 mg/L (≈ 138 µM)	4 mg/L (≈ 8.6 µM)	2 mg/L (≈ 4.3 µM)	128 mg/L (≈ 275 µM)	0.25 mg/L (≈ 0.538 µM)	0.25 mg/L (≈ 0.538 µM)	0.25 mg/L (≈ 0.538 µM)	–
CN(C)c1ccc(O)c2c1C[C@H]1C[C@H]3[C@H](N(C)C)C(O)=C(C(N)=O)C(=O)[C@@]3(O)C(O)=C1C2=O [Minocycline]	≤ 0.0125 mg/L	0.125 mg/L (≈ 0.273 µM)	0.5 mg/L (≈ 1.09 µM)	0.25 mg/L (≈ 0.546 µM)	4 mg/L (≈ 8.74 µM)	0.25 mg/L (≈ 0.546 µM)	0.25 mg/L (≈ 0.546 µM)	–	–	–	–	–	–	–	–	–	–	–	–	MIC [15]: 0.25 mg/L (≈ 0.546 µM)
